Reference: US6362209B1, “Heterocyclic aromatic oxazole compounds and use thereof” (Japan Tobacco Inc., priority 1994, dated 2002)
pIC50: −log10 of the molar value.

Tests used:
[1] = molecular target: cyclooxygenase-1 (Homo sapiens, UniProt P23219); test: Inhibitory action on cyclooxygenase-1 (conversion of 14C arachidonic acid to PGH2); type: biochemical; conditions: enzyme prepared from human platelets; preincubation 24° C. 5 minutes; read-out: IC50 COX-1
Protocol: (§1) The enzymatic activity was determined from the percent conversion of ^14C arachidonic acid into prostaglandin H2 (PGH2) and the decomposed product thereof. That is, a test sample (20 μl), an enzyme solution (20 μl) and distilled water (10 μl) were added to 100 mM Tris-HCl buffer (pH 8, 140 μl) containing hematin (2 μM) and tryptophan (5 mM), and the mixture was thoroughly stirred, which was followed by preincubation at 24° C. for 5 minutes. Then, a ^14C arachidonic acid solution (10 μl) was added and the mixture was reacted at 24° C., whereafter a solution (40 μl) of ethyl ether/methanol/1M citric acid (30/4/1) iceooled to −20° C. was added to stop the reaction. The reaction mixture was centrifuged for 5 minutes at 3,000 rpm to give an ether layer which was placed on a thin plate, and developed with ethyl ether/methanol/acetic acid (90/2/0.1) to determine percent conversion (A) from arachidonic acid to PGH2 and the decomposed product thereof.
Inhibition (%)=(1A/B)×100
(§2) An enzyme prepared from human platelets was used as an enzyme solution of cyclooxygenase-1, and an enzyme expressed by a yeast, into which cDNA of human cyclooxygenase-2 had been introduced using a kit of Invitrogen Corp., was used as an enzyme solution of cyclooxygenase-2.

[2] = molecular target: T1, human cyclooxygenase-2 (Homo sapiens, UniProt P35354); test: Inhibitory action on cyclooxygenase-2 (conversion of 14C arachidonic acid to PGH2)
T1 sequence (P35354 18-604): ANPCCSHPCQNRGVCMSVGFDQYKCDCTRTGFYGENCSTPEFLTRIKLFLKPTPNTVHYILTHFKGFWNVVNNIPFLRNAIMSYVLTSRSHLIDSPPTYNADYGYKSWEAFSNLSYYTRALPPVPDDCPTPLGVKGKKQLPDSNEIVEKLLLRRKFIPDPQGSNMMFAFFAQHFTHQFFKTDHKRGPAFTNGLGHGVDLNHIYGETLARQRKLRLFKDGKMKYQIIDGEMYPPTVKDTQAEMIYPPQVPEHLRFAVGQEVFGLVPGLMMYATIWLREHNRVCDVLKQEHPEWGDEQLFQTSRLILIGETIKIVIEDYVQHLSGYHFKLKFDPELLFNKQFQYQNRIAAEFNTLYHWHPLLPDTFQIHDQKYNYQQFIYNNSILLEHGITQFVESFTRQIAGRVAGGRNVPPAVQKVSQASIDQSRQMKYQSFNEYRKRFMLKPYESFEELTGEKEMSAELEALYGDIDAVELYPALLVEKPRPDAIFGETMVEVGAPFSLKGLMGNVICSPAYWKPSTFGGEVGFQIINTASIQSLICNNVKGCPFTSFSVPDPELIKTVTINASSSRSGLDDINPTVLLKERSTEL
Protocol: as §1
Inhibition (%)=(1A/B)×100
as §2

[3] = test system: carrageenin-induced podedema; test: Effects on carrageenin-induced podedema in rats; type: in vivo, male Donryu rats; conditions: oral dose one hour before carrageenin; limb volume 3 hours after carrageenin; dose inhibiting by 30% relative to control
Protocol: Experimental Example 2 (effects on carrageen in induced podedema) Carrageenin (1%, 0.05 ml) dissolved in physiological saline was subcutaneously injected to the left hindlimb of male Donryu rats to induce podedema. The degree of podedema was evaluated by measuring the volume of the limb 3 hours after carrageenin administration. A test compound (1, 3, 10 or 30 mg/kg) was orally administered one hour before carrageenin administration, and suppression thereby was studied. Inhibitory activity was expressed by the dose (ED30) of the test compound necessary for inhibiting by 30% relative to the control group.

cyclooxygenase-1, sequence (P23219 24-599): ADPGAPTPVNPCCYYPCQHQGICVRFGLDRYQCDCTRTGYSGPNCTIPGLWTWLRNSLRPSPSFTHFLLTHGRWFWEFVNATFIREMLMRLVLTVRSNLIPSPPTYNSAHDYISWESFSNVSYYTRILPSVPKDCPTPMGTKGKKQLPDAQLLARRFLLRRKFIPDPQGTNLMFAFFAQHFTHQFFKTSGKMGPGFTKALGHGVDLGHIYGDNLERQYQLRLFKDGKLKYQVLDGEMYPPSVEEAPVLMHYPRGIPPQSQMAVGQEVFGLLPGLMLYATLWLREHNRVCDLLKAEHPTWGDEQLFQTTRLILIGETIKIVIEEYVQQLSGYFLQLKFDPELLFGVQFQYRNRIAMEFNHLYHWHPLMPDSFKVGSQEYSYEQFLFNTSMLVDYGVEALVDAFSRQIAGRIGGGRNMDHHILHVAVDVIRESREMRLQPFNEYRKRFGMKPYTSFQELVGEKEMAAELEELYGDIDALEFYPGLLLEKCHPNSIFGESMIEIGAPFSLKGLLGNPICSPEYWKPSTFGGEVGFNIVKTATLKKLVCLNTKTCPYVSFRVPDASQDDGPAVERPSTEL

Compound `Cc1nc(C2CCCCC2)c(-c2ccc(S(N)(=O)=O)cc2)o1` [Control 1, reference compound] has a pIC50 [1] of 4.35.
Compound `Cc1nc(C2CCCCC2)c(-c2cc(F)c(S(N)(=O)=O)c(F)c2)o1` [Example 6] has a pIC50 [1] of less than 4.00 and a pIC50 [2] of 6.80.
With `Cc1nc(C2CCCCC2)c(-c2ccc(S(N)(=O)=O)c(F)c2)o1` [Example 2, 5-(4-aminosulfonyl-3-fluorophenyl)-4-cyclohexyl-2-methyloxazole] the “carrageenin-induced podedema in rats, ED30” value [3] was 5.5 mg/kg p.o and the pIC50 [2] was 7.15.
`Cc1nc(-c2ccc(F)cc2)c(-c2ccc(S(N)(=O)=O)c(F)c2)o1` [Example 7, 5-(4-aminosulfonyl-3-fluorophenyl)-4-(4-fluorophenyl)-2-methyloxazole] showed a pIC50 [1] of 4.43 and a pIC50 [2] of 7.52.
For `COc1ccc2c(c1)c(CC(=O)O)c(C)n2C(=O)c1ccc(Cl)cc1` [Indomethacin, reference compound], the “carrageenin-induced podedema in rats, ED30” value [3] was 2.9 mg/kg p.o.
`Cc1nc(C2CCCCC2)c(-c2ccc(S(C)(=O)=O)c(F)c2)o1` [Example 3, 4-cyclohexyl-5-(3-fluoro-4-methylsulfonylphenyl)-2-methyloxazole] showed a pIC50 [1] of less than 4.00 and a pIC50 [2] of 6.52.
